In patent US12152048B2, “Nitroxoline prodrug and use thereof” (Jiangsu Yahong Meditech Co., Ltd., priority 2018, dated 2024):
In brackets after ≈: the same amount, converted by molar mass.

Tests used:
Stability in dog plasma = type: in vitro ADME
Description: (§1) Experimental instruments: thermostatic shaker (SHA-B, Guohua Electric Appliance Co., Ltd.); centrifuge (5810R, Eppendorf); mass spectrometry (AP4000, Applied Biosystems, USA); liquid chromatography (LC-30AD, Shimadzu); sample injector (CTC Analytics AG System, CTC).
(§2) Test animals: plasma of human (batch number: BRH1343165), rat (batch number: RAT336728), mouse (batch number: MSE280000), dog (batch number: BGL99137) and monkey (batch number: PH-Monkey-20180821) are purchased from Shanghai Sixin Biological Technology Co., Ltd.
(§3) Experimental process: the compound of the present invention was dissolved in an organic solvent to obtain a 1 mM working solution. 3 μL of the working solution were added to 597 μL of pre-incubated human or rat plasma and mixed well. 50 μL of the solution were immediately taken out as the 0 minute sample. The remaining sample was incubated at 37° C., and 50 μL of sample were taken out at 15, 30, 60 and 120 minutes respectively. All the samples taken out were immediately processed to precipitate protein, and centrifuged to obtain a supermate for the determination of the compound concentration by LC/MS/MS.

[1] = Stability in monkey plasma; type: in vitro ADME
Description: as §1, §2, §3

[2] = Stability in human plasma
Description: as §1, §2, §3

[3] = Determination of water solubility in phosphate buffer; type: physicochemical; conditions: for solubility at 24 h: aqueous buffer, thermodynamic from solid, phosphate buffer pH 7.4, room temperature; for water solubility compared with nitroxoline: conclusion in words
Description: Experimental instruments: 96-well filter plate (MSHVN4510 or MSHVN4550, Millipore); electronic digital display vortex mixer (MS3 Digital, IKA); multi-purpose vacuum pump (circulating water type, SHB-111, Zhengzhou Greatwall Scientific Industrial and Trade Co., Ltd.); balance (XSLT05, Mettler-Toledo); comfortable mixer (Eppendorf AG 22331 Hamburg, Eppendorf); liquid chromatography (LC-3AD, Shimadzu); mass spectrometry (API4000, Applied Biosystems, USA); sample injector (Anylytics AG System, CTC). Nitroxoline was prepared according to the method disclosed in Journal of Heterocyclic Chemistry, 1971, vol. 8, p 821 by Wisdom Pharmaceutical Co., Ltd.
Experimental process: 500 μL of phosphate buffer (pH=1.2, 4.5, 6.8 or 7.4) were added to a glass flask, to which 2 mg of compound powder were added. The flask was sealed with a cap and shaked on a mixer (VORTEX-GENIE2) at room temperature for 24 hours. The solution was subjected to vacuum filtration, and the filtrate was processed to determine the compound concentration by LC/MS/MS.

[4] = Stability in mouse liver microsome; type: in vitro ADME; conditions: 2 μM, 37° C., 30 minutes
[5] = Stability in dog liver microsome; conditions: 2 μM, 37° C., 30 minutes
[6] = Stability in rat liver microsome; conditions: 2 μM, 37° C., 30 minutes
Description: Experimental instruments: thermostatic shaker (SHA-B, Guohua Electric Appliance Co., Ltd.); centrifuge (5810R, Eppendorf); mass spectrometry (API4000, Applied Biosystems, USA); liquid chromatography (LC-30AD, Shimadzu); sample injector (CTC Analytics AG System, CTC).
Experimental process: 25 μg/mL alamethicin (Aldrich), 5 mM magnesium chloride and 0.5 mg/mL microsome (XENOTECH) were added to 100 mM phosphate buffer to obtain a coenzyme-free reaction solution. A portion of the coenzyme-free reaction solution was added with 1 mM reductive nicotinamide adenine dinucleotide phosphate (Aldrich) and 5 mM uridine diphosphate glucuronic acid (Aldrich) to obtain a coenzyme-containing reaction solution. The working solution of the compound of the present invention was added to the two reaction solutions so that the final concentration of the compound was 2 μM. Immediately after mixing well, 50 μL of the solution were taken out as the 0 minute sample, and 50 μL of the remaining sample were taken out after incubating at 37° C. for 30 minutes. All the samples taken out were immediately processed to precipitate protein, and centrifuged to obtain a supernate for the determination of the compound concentration by LC/MS/MS.

[7] = Stability in human liver microsome; conditions: 2 μM, 37° C., 30 minutes
[8] = Stability in plasma, overall conclusion (species not stated); conditions: conclusion in words

Percentage of the compound remaining in plasma (Stability in rat plasma; 0 minute)	Percentage of the compound remaining in plasma (Stability in rat plasma; 37° C., 15 minutes)	Percentage of the compound remaining in plasma (Stability in rat plasma; 37° C., 30 minutes)	Percentage of the compound remaining in plasma (Stability in rat plasma; 37° C., 60 minutes)	Percentage of the compound remaining in plasma (Stability in rat plasma; 37° C., 120 minutes)	Percentage of the compound remaining in plasma ([2]; 0 minute)	Percentage of the compound remaining in plasma ([2]; 37° C., 15 minutes)	Percentage of the compound remaining in plasma ([2]; 37° C., 30 minutes)	Percentage of the compound remaining in plasma ([2]; 37° C., 60 minutes)	Percentage of the compound remaining in plasma ([2]; 37° C., 120 minutes)	solubility at 24 h [3]	Percentage of the compound remaining in mouse liver microsome ([4]; with coenzyme)	Percentage of the compound remaining in mouse liver microsome ([4]; without coenzyme)	Percentage of the compound remaining in dog liver microsome ([5]; with coenzyme)	Percentage of the compound remaining in dog liver microsome ([5]; without coenzyme)	Percentage of the compound remaining in rat liver microsome ([6]; with coenzyme)	Percentage of the compound remaining in rat liver microsome ([6]; without coenzyme)	Percentage of the compound remaining in human liver microsome ([7]; with coenzyme)	Percentage of the compound remaining in human liver microsome ([7]; without coenzyme)	SMILES	also measured
100.0%	0.0%	0.0%	0.0%	0.0%	100.0%	80.9%	70.7%	54.7%	31.4%	–	–	–	–	–	–	–	–	–	CC(C)(C)C(=O)OCOc1ccc([N+](=O)[O-])c2cccnc12 [Compound 4, (5-nitroquinolin-8-yloxy)methyl pivalate]	Percentage of the compound remaining in plasma (Stability in dog plasma; 0 minute): 100.0%; Percentage of the compound remaining in plasma (Stability in dog plasma; 37° C., 15 minutes): 80.0%; Percentage of the compound remaining in plasma (Stability in dog plasma; 37° C., 30 minutes): 56.3%; Percentage of the compound remaining in plasma (Stability in dog plasma; 37° C., 60 minutes): 32.7%; Percentage of the compound remaining in plasma (Stability in dog plasma; 37° C., 120 minutes): 18.2%; Percentage of the compound remaining in plasma ([1]; 0 minute): 100.0%; Percentage of the compound remaining in plasma ([1]; 37° C., 15 minutes): 4.8%; Percentage of the compound remaining in plasma ([1]; 37° C., 30 minutes): 0.3%; Percentage of the compound remaining in plasma ([1]; 37° C., 60 minutes): 0.0%; Percentage of the compound remaining in plasma ([1]; 37° C., 120 minutes): 0.0%
–	–	–	–	–	–	–	–	–	–	59.2 µg/mL (≈ 204 µM)	0.01%	0.01%	0.16%	0.19%	0.08%	0.04%	0.05%	0.06%	CC(C)C(=O)OCOc1ccc([N+](=O)[O-])c2cccnc12 [Compound 3, (5-nitroquinolin-8-yloxy)methyl isobutyrate]	–
–	–	–	–	–	–	–	–	–	–	540 µg/mL (≈ 1000 µM)	0.02%	4.32%	13.05%	67.43%	0.06%	12.10%	9.77%	74.45%	CN(CC(=O)OCc1cccnc1N(C)C(=O)OCOc1ccc([N+](=O)[O-])c2cccnc12)C(=O)C(C)(C)C [Compound 66]	water solubility compared with nitroxoline [3]: increased by several times
100.0%	95.8%	94.1%	92.4%	92.4%	100.0%	102.3%	100.9%	103.1%	100.3%	–	–	–	–	–	–	–	–	–	C[C@@H]1CN(C(=O)OCOc2ccc([N+](=O)[O-])c3cccnc23)C[C@H](C)O1 [Compound 59, (2S,6R)-(5-nitroquinolin-8-yloxy)methyl 2,6-dimethylmorpholine-4-carboxylate]	Percentage of the compound remaining in plasma (Stability in dog plasma; 0 minute): 100.0%; Percentage of the compound remaining in plasma (Stability in dog plasma; 37° C., 15 minutes): 96.7%; Percentage of the compound remaining in plasma (Stability in dog plasma; 37° C., 30 minutes): 95.0%; Percentage of the compound remaining in plasma (Stability in dog plasma; 37° C., 60 minutes): 102.8%; Percentage of the compound remaining in plasma (Stability in dog plasma; 37° C., 120 minutes): 99.9%; stability in plasma [8]: high stability
100.0%	0.0%	0.0%	0.0%	0.0%	100.0%	95.2%	83.6%	60.9%	21.6%	–	–	–	–	–	–	–	–	–	COC(=O)[C@H](Cc1ccccc1)NC(=O)OCOc1ccc([N+](=O)[O-])c2cccnc12 [Compound 58, methyl (S)-2-(((5-nitroquinolin-8-yloxy)methoxy)formamido)-3-phenylpropionate]	Percentage of the compound remaining in plasma (Stability in dog plasma; 0 minute): 100.0%; Percentage of the compound remaining in plasma (Stability in dog plasma; 37° C., 15 minutes): 96.3%; Percentage of the compound remaining in plasma (Stability in dog plasma; 37° C., 30 minutes): 90.4%; Percentage of the compound remaining in plasma (Stability in dog plasma; 37° C., 60 minutes): 74.4%; Percentage of the compound remaining in plasma (Stability in dog plasma; 37° C., 120 minutes): 49.8%; stability in plasma [8]: high stability
–	–	–	–	–	–	–	–	–	–	965 µg/mL (≈ 1940 µM)	0.72%	2.63%	65.08%	93.36%	4.33%	59.38%	29.88%	39.15%	CC(=O)N(C)CC(=O)OCc1cccnc1N(C)C(=O)OCOc1ccc([N+](=O)[O-])c2cccnc12 [Compound 65]	water solubility compared with nitroxoline [3]: increased by several times
–	–	–	–	–	–	–	–	–	–	91.1 µg/mL	0.16%	0.27%	0.42%	0.73%	0.15%	0.27%	0.24%	0.76%	CC(=O)OCOc1ccc([N+](=O)[O-])c2cccnc12 [Compound 1, (5-nitroquinolin-8-yloxy)methyl acetate]	–
100.0%	92.4%	97.3%	95.8%	89.0%	100.0%	95.4%	101.8%	99.7%	92.7%	–	–	–	–	–	–	–	–	–	CC1CN(C(=O)OCOc2ccc([N+](=O)[O-])c3cccnc23)CCO1 (stereo not drawn) [Compound 62, (5-nitroquinolin-8-yloxy)methyl 2-methylmorpholine-4-carboxylate]	stability in plasma [8]: high stability
–	–	–	–	–	–	–	–	–	–	285 µg/mL	0.04%	0.04%	0.01%	0.02%	0.01%	0.02%	0.03%	0.02%	CC(=O)OC(C)Oc1ccc([N+](=O)[O-])c2cccnc12 (stereo not drawn) [Compound 47, 1-(5-nitroquinolin-8-yloxy)ethyl acetate]	–
–	–	–	–	–	–	–	–	–	–	72.7 µg/mL (≈ 263 µM)	0.10%	0.02%	0.13%	0.18%	0.52%	0.45%	0.27%	0.16%	CCC(=O)OCOc1ccc([N+](=O)[O-])c2cccnc12 [Compound 2, (5-nitroquinolin-8-yloxy)methyl propionate]	–
–	–	–	–	–	–	–	–	–	–	132 µg/mL (≈ 328 µM)	0.26%	0.00%	0.14%	1.40%	0.06%	4.63%	2.65%	5.06%	CCCOC(=O)N1CCC[C@H]1C(=O)OCOc1ccc([N+](=O)[O-])c2cccnc12 [Compound 18, (S)-2-(5-nitroquinolin-8-yloxy)methyl 1-propyl pyrrolidine-1,2-dicarboxylate]	water solubility compared with nitroxoline [3]: increased by several times

SMILES	Percentage of the compound remaining in plasma (Stability in rat plasma; 0 minute)	Percentage of the compound remaining in plasma (Stability in rat plasma; 37° C., 15 minutes)	Percentage of the compound remaining in plasma (Stability in rat plasma; 37° C., 30 minutes)	Percentage of the compound remaining in plasma (Stability in rat plasma; 37° C., 60 minutes)	Percentage of the compound remaining in plasma (Stability in rat plasma; 37° C., 120 minutes)	Percentage of the compound remaining in plasma ([2]; 0 minute)	Percentage of the compound remaining in plasma ([2]; 37° C., 15 minutes)	Percentage of the compound remaining in plasma ([2]; 37° C., 30 minutes)	Percentage of the compound remaining in plasma ([2]; 37° C., 60 minutes)	Percentage of the compound remaining in plasma ([2]; 37° C., 120 minutes)	solubility at 24 h [3]	Percentage of the compound remaining in mouse liver microsome ([4]; with coenzyme)	Percentage of the compound remaining in mouse liver microsome ([4]; without coenzyme)	Percentage of the compound remaining in dog liver microsome ([5]; with coenzyme)	Percentage of the compound remaining in dog liver microsome ([5]; without coenzyme)	Percentage of the compound remaining in rat liver microsome ([6]; with coenzyme)	Percentage of the compound remaining in rat liver microsome ([6]; without coenzyme)	Percentage of the compound remaining in human liver microsome ([7]; with coenzyme)	Percentage of the compound remaining in human liver microsome ([7]; without coenzyme)	also measured
CN(C)C(=O)Oc1ccc([N+](=O)[O-])c2cccnc12 [Compound 78, 5-nitroquinolin-8-yl dimethylcarbamate]	–	–	–	–	–	–	–	–	–	–	226 µg/mL (≈ 863 µM)	0.00%	100.18%	0.36%	98.41%	2.40%	91.50%	14.46%	90.37%	–
